Reference: DBAASP
≈ marks a conversion by molar mass, not a printed value.

Columns and labels:
Experiment in all cases: ≥ marks a high value that may be exact or a test limit, other limits are often not marked, values filed in µg/mL are converted to µM
[1] = system: Escherichia coli JW0013
[2] = system: Pseudomonas aeruginosa ATCC 9027
[3] = system: Staphylococcus aureus ATCC 6538
[4] = system: Pseudomonas aeruginosa KCTC 1637
[5] = system: Escherichia coli KCTC 1682
[6] = system: Staphylococcus aureus KCTC 1621
[7] = system: Salmonella typhimurium KCTC 1926
[8] = system: Staphylococcus epidermidis KCTC 1917
[9] = system: Micrococcus luteus
[10] = system: Escherichia coli
[11] = system: Acinetobacter baumannii
[12] = system: Staphylococcus aureus
[13] = system: Staphylococcus aureus ATCC 29213
[14] = system: Escherichia coli ATCC 25922
[15] = system: Acinetobacter baumannii ATCC 19606
[16] = system: Staphylococcus aureus ATCC 25923
[17] = system: Klebsiella pneumoniae ATCC 700603
[18] = system: Klebsiella pneumoniae
[19] = system: Pseudomonas aeruginosa ATCC 27853
[20] = system: Staphylococcus epidermidis
[21] = system: Klebsiella pneumoniae ATCC 13883
[22] = system: Pseudomonas aeruginosa
[23] = system: Candida albicans ATCC 10231
[24] = system: Bacillus subtilis ATCC 6633

For `CC[C@H](C)[C@H](NC(=O)[C@H](CCCN=C(N)N)NC(=O)[C@H](CCCN=C(N)N)NC(=O)[C@@H]1CCCN1C(=O)[C@@H]1CCCN1C(=O)[C@H](CCCN=C(N)N)NC(=O)[C@@H]1CCCN1C(=O)[C@H](CCCN=C(N)N)NC(=O)[C@@H]1CCCN1C(=O)[C@H](CC(C)C)NC(=O)[C@H](Cc1ccc(O)cc1)NC(=O)[C@@H]1CCCN1C(=O)[C@H](C)NC(=O)[C@H](CCCCN)NC(=O)[C@H](CC(=O)O)NC(=O)[C@@H](N)C(C)C)C(=O)N[C@@H](Cc1ccc(O)cc1)C(=O)N[C@@H](CC(N)=O)C(=O)N[C@@H](CCCN=C(N)N)C(N)=O` [VDKAPYLPRPRPPRRIYNR], the MIC [1] was 1.4 µM (≈ 3.3 µg/mL).
Compound `CC(C)C[C@H](NC(=O)[C@H](C)NC(=O)[C@H](CCCCN)NC(=O)[C@H](CCCCN)NC(=O)[C@H](CC(C)C)NC(=O)[C@H](C)NC(=O)[C@H](CCCCN)NC(=O)[C@H](CC(C)C)NC(=O)[C@H](C)NC(=O)[C@H](CC(C)C)NC(=O)[C@H](C)NC(=O)[C@@H](N)Cc1ccccc1)C(N)=O` [FALALKALKKAL] has an MIC [2] of 38.9 µM (≈ 50 µg/mL) and an MIC [3] of 3.89 µM (≈ 5 µg/mL).
Work on `CC(C)C[C@H](NC(=O)[C@H](CCCCN)NC(=O)[C@H](CCCCN)NC(=O)[C@H](C)NC(=O)[C@H](CC(C)C)NC(=O)[C@H](CCCCN)NC(=O)[C@H](C)NC(=O)[C@H](CCCCN)NC(=O)[C@H](CCCCN)NC(=O)[C@H](C)NC(=O)[C@H](CC(C)C)NC(=O)[C@H](CCCCN)NC(=O)[C@H](CCCCN)NC(=O)[C@H](C)NC(=O)[C@@H](N)Cc1ccccc1)C(N)=O` [FAKKLAKKAKLAKKL] yielded an MIC [2] of 59.3 µM (≈ 99.9 µg/mL) and an MIC [3] of 119 µM (≈ 200 µg/mL).
`C[C@H](NC(=O)[C@H](Cc1c[nH]c2ccccc12)NC(=O)[C@H](CCCCN)NC(=O)[C@H](CCCN=C(N)N)NC(=O)CNC(=O)[C@H](Cc1c[nH]c2ccccc12)NC(=O)[C@H](CCCN=C(N)N)NC(=O)[C@H](CCCN=C(N)N)NC(=O)[C@H](Cc1c[nH]c2ccccc12)NC(=O)CNC(=O)[C@@H](N)CCCN=C(N)N)C(=O)N[C@@H](Cc1cnc[nH]1)C(=O)NCC(=O)N[C@@H](Cc1c[nH]c2ccccc12)C(=O)N[C@@H](CCCCN)C(=O)N[C@@H](CCCCN)C(=O)N[C@@H](Cc1ccc(O)cc1)C(=O)NCC(N)=O` [RGWRRWGRKWAHGWKKYG] gave an MIC [4] of 8 µM (≈ 19 µg/mL), an MIC [5] of 4 µM (≈ 9.48 µg/mL) and an MIC [6] of 4 µM (≈ 9.48 µg/mL). The MIC [7] was 2 µM (≈ 4.74 µg/mL) and the MIC [8] was 2 µM (≈ 4.74 µg/mL).
Compound `CC[C@H](C)[C@H](NC(=O)[C@H](CCCN=C(N)N)NC(=O)[C@H](CCCN=C(N)N)NC(=O)[C@@H]1CCCN1C(=O)[C@@H]1CCCN1C(=O)[C@H](CCCN=C(N)N)NC(=O)[C@@H]1CCCN1C(=O)[C@H](Cc1cnc[nH]1)NC(=O)[C@@H]1CCCN1C(=O)[C@H](CC(C)C)NC(=O)[C@H](Cc1ccc(O)cc1)NC(=O)[C@@H]1CCCN1C(=O)[C@@H]1CCCN1C(=O)[C@H](CCCCN)NC(=O)[C@H](CC(=O)O)NC(=O)[C@@H](N)C(C)C)C(=O)N[C@@H](Cc1ccc(O)cc1)C(=O)N[C@@H](CC(N)=O)C(=O)N[C@@H](CCCN=C(N)N)C(N)=O` [VDKPPYLPHPRPPRRIYNR] has an MIC [1] of 2.02 µM (≈ 4.8 µg/mL).
`CC[C@H](C)[C@H](NC(=O)[C@H](CCCN=C(N)N)NC(=O)[C@H](CCCN=C(N)N)NC(=O)[C@@H]1CCCN1C(=O)[C@@H]1CCCN1C(=O)[C@H](CCCN=C(N)N)NC(=O)[C@@H]1CCCN1C(=O)[C@H](CCCN=C(N)N)NC(=O)[C@@H]1CCCN1C(=O)[C@H](CC(C)C)NC(=O)[C@H](CCCN=C(N)N)NC(=O)[C@@H]1CCCN1C(=O)[C@H](CCCN=C(N)N)NC(=O)[C@H](CCCCN)NC(=O)[C@H](CC(=O)O)NC(=O)[C@@H](N)C(C)C)C(=O)N[C@@H](Cc1ccc(O)cc1)C(=O)N[C@@H](CC(N)=O)C(=O)N[C@@H](CCCN=C(N)N)C(N)=O` [VDKRPRLPRPRPPRRIYNR] was tested, and the MIC [1] was 0.532 µM (≈ 1.3 µg/mL).
For `CC[C@H](C)[C@H](NC(=O)[C@H](CCCN=C(N)N)NC(=O)[C@H](CCCN=C(N)N)NC(=O)[C@@H]1CCCN1C(=O)[C@@H]1CCCN1C(=O)[C@H](CCCN=C(N)N)NC(=O)[C@H](Cc1ccc(O)cc1)NC(=O)[C@H](CCCN=C(N)N)NC(=O)[C@@H]1CCCN1C(=O)[C@H](CC(C)C)NC(=O)[C@H](Cc1ccc(O)cc1)NC(=O)[C@@H]1CCCN1C(=O)[C@@H]1CCCN1C(=O)[C@H](CCCCN)NC(=O)[C@H](CC(=O)O)NC(=O)[C@@H](N)C(C)C)C(=O)N[C@@H](Cc1ccc(O)cc1)C(=O)N[C@@H](CC(N)=O)C(=O)N[C@@H](CCCN=C(N)N)C(N)=O` [VDKPPYLPRYRPPRRIYNR], the MIC [1] was 1.95 µM (≈ 4.8 µg/mL).
`CC[C@H](C)[C@H](NC(=O)CNC(=O)[C@H](CO)NC(=O)[C@H](CC(C)C)NC(=O)[C@H](C)NC(=O)[C@H](CC(=O)O)NC(=O)[C@H](CC(C)C)NC(=O)[C@H](CC(C)C)NC(=O)CN)C(=O)N[C@@H](CC(C)C)C(=O)NCC(=O)N[C@@H](CC(C)C)C(N)=O` [GLLDALSGILGL] gave an MIC [9] of 21.9 µM (≈ 25 µg/mL).
In the case of `CC(C)C[C@H](NC(=O)[C@H](C)NC(=O)[C@H](CCCCN)NC(=O)[C@H](CCCCN)NC(=O)[C@H](C)NC(=O)[C@H](CCCCN)NC(=O)[C@H](CCCCN)NC(=O)[C@H](CC(C)C)NC(=O)[C@H](C)NC(=O)[C@H](CCCCN)NC(=O)[C@H](CCCCN)NC(=O)[C@H](C)NC(=O)[C@H](CC(C)C)NC(=O)[C@H](C)NC(=O)[C@@H](N)Cc1ccccc1)C(N)=O` [FALAKKALKKAKKAL], the MIC [2] is reported as 15.3 µM (≈ 25 µg/mL) and the MIC [3] is reported as 61.4 µM (≈ 99.9 µg/mL).
For `CC(C)C[C@H](NC(=O)[C@H](CCCCN)NC(=O)[C@H](CC(C)C)NC(=O)[C@H](C)NC(=O)[C@H](CCCCN)NC(=O)[C@H](C)NC(=O)[C@H](CC(C)C)NC(=O)[C@H](CC(C)C)NC(=O)[C@H](CCCCN)NC(=O)[C@H](CCCCN)NC(=O)[C@H](C)NC(=O)[C@@H](N)Cc1ccccc1)C(N)=O` [FAKKLLAKALKL], the MIC [2] was 149 µM (≈ 200 µg/mL) and the MIC [3] was > 149 µM.
For `C[C@H](NC(=O)[C@@H]1CCCN1C(=O)[C@H](CCCN=C(N)N)NC(=O)[C@H](Cc1ccc(O)cc1)NC(=O)CNC(=O)[C@H](CC(N)=O)NC(=O)[C@@H](N)CO)C(=O)N[C@@H](Cc1ccc(O)cc1)C(=O)N[C@@H](CCCN=C(N)N)C(=O)N1CCC[C@H]1C(=O)N[C@@H](C)C(=O)N[C@@H](Cc1ccc(O)cc1)C(=O)N[C@@H](CCCN=C(N)N)C(=O)N1CCC[C@H]1C(=O)N[C@@H](CO)C(=O)N[C@@H](Cc1ccc(O)cc1)C(=O)N[C@@H](CCCN=C(N)N)C(=O)N1CCC[C@H]1C(N)=O` [SNGYRPAYRPAYRPSYRP], the MIC [10] was > 32 µM, the MIC [11] was ≥ 32 µM and the MIC [12] was > 32 µM. For the same compound, the MIC [13] was 32 µM (≈ 69.5 µg/mL), the MIC [14] was 32 µM (≈ 69.5 µg/mL) and the MIC [15] was > 32 µM.
`CC[C@H](C)[C@H](NC(=O)[C@H](Cc1ccc(O)cc1)NC(=O)[C@H](CCCCN)NC(=O)[C@H](CCCCN)NC(=O)[C@H](CC(C)C)NC(=O)[C@H](CC(C)C)NC(=O)[C@H](CCCCN)NC(=O)[C@H](CCCCN)NC(=O)[C@@H](NC(=O)[C@H](CC(C)C)NC(=O)[C@@H](N)CCCCN)C(C)C)C(=O)N[C@H](C(=O)N[C@@H](Cc1ccccc1)C(=O)O)[C@@H](C)O` [KLVKKLLKKYITF] was tested, and the MIC [2] was 4 µM (≈ 6.49 µg/mL), the MIC [16] was > 64 µM and the MIC [11] was ≥ 64 µM. For the same compound, the MIC [17] was > 64 µM and the MIC [14] was > 64 µM.
`CC(C)[C@H](NC(=O)CNC(=O)[C@@H](N)Cc1cnc[nH]1)C(=O)N[C@@H](CO)C(=O)NCC(=O)N[C@@H](Cc1cnc[nH]1)C(=O)NCC(=O)N[C@@H](CCC(N)=O)C(=O)N[C@@H](Cc1cnc[nH]1)C(=O)NCC(=O)N[C@H](C(=O)N[C@@H](Cc1cnc[nH]1)C(=O)NCC(=O)O)[C@@H](C)O` [HGVSGHGQHGTHG] showed an MIC [10] of 6.31 µM (≈ 8 µg/mL), an MIC [18] of 6.31 µM (≈ 8 µg/mL) and an MIC [16] of 6.31 µM (≈ 8 µg/mL). It also gave an MIC [12] of 12.6 µM (≈ 16 µg/mL), an MIC [19] of 6.31 µM (≈ 8 µg/mL) and an MIC [20] of 12.6 µM (≈ 16 µg/mL). The MIC [14] was 3.16 µM (≈ 4 µg/mL), the MIC [21] was 6.31 µM (≈ 8 µg/mL) and the MIC [22] was 12.6 µM (≈ 16 µg/mL).
`CC(C)C[C@H](NC(=O)[C@@H]1CCCN1C(=O)[C@H](CCCCN)NC(=O)[C@@H]1CCCN1C(=O)[C@H](Cc1ccc(O)cc1)NC(=O)[C@H](CCCCN)NC(=O)[C@H](Cc1c[nH]c2ccccc12)NC(=O)[C@@H](N)CCCN=C(N)N)C(=O)N[C@@H](CCCCN)C(=O)N[C@@H](CCCN=C(N)N)C(=O)O` [RWKYPKPLKR] was tested, and the MIC [16] was > 72.9 µM, the MIC [23] was 54.7 µM (≈ 75 µg/mL) and the MIC [14] was 54.7 µM (≈ 75 µg/mL). It also gave an MIC [24] of 27.3 µM (≈ 37.5 µg/mL).
